Results from patent US8765819B2, “Composition comprising benzoic acid in combination with organic acid preservatives as active ingredients and the use thereof” (priority 2009, dated 2014).

Columns and labels:
[1] = test system: Candidal vaginitis; test: Therapeutic effect of gel compositions on Candidal vaginitis (clinical cases); assay type: in vivo, patients; conditions: cases/cases of group
From the text: 1. Experimental Object: observing the therapeutic effect of the compositions comprising the combination of sodium benzoate with sodium propionate or sorbic acid. Unless otherwise illustrated, the solutions in the experiments are all aqueous solutions.
• Group I: 0.125% (w/v) sodium propionate; • Group II: i.e., the composition of Example 9 comprising 0.1% (w/v) sodium benzoate+0.125% (w/v) sodium propionate; • Group III: 0.0125% (w/v) sorbic acid; • Group IV: i.e., the composition of Example 7 comprising 0.1% (w/v) sodium benzoate+0.0125% (w/v) sorbic acid; • Group V: 0.1% (w/v) sodium benzoate; • Group VI: i.e., the composition of Example 5 comprising 0.1% sodium benzoate+0.0125% sodium dehydroacetate. 3. Experimental cases: cases of Candidal vaginitis, 20 cases per group, enrolling according to following criteria: recurrent symptoms such as vulvovaginal pruritus and vulvovaginal burning pain, and increased leucorrhea, optionally with white bean curd slag-like clots, pH value of vaginal secretion <4.5, vaginal bacteria were dominated by large Gram-positive rods, and Candida spores and/or hypha were found. 4. […] 5. […] 6. Observed results: observing the changes in vulvovaginal pruritus, vulvovaginal burning pain and leucorrhea nature, the pH value of vaginal secretion, observing the Nugent scores of the vaginal flora, whether Candida grew or not. 7. […] 8.

[2] = test system: Candida strains (clinical isolates from patients suffering from Candidal vaginitis); test: Inhibition of Candida growth in broth pH 4.5 (turbidity after 72 hours); assay type: cell-based
From the text: 1. […] Unless otherwise illustrated, the solutions in the experiments are all aqueous solutions. 2. Experimental Method: (1) Experimental Materials:
a) Experimental strains: 11 Candida strains, all of which were screened from the clinical isolates from patients suffering from Candidal vaginitis, and were capable of growing in broth comprising 0.025% (w/v) sodium benzoate.
b) Broth: 1% yeast extract powder, 9% sucrose, 0.025% Manganese sulfate (MnSO4.4H2O), 0.058% Magnesium sulphate (MgSO4.7H2O), and 0.9% lactic acid, wherein the pH value was adjusted to 4.5 and the broth was sterilized for use;
(2) Experimental Grouping:
The requirements for aseptic technique were strictly followed to prepare the following groups of sterile test tubes: • a) sodium benzoate group: a test tube containing 5 ml broth, to which 0.025% (w/v) sodium benzoate was added; • b) sodium benzoate+sodium dehydroacetate group: 6 test tubes each containing 5 ml broth, wherein 0.0025% (w/v), 0.005% (w/v), and 0.01% (w/v) sodium dehydroacetate were added to three tubes, respectively; 0.025% (w/v) sodium benzoate was added to each of the rest 3 tubes, and then 0.0025% (w/v), 0.005% (w/v), 0.01% (w/v) sodium dehydroacetate were added to them, respectively; • c) sodium benzoate+sodium propionate group: 6 test tubes each containing 5 ml broth, wherein 0.0625% (w/v), 0.125% (w/v), and 0.25% (w/v) sodium propionate were added to three tubes, respectively; 0.025% (w/v) sodium benzoate was added to each of the rest 3 tubes, and then 0.0625% (w/v), 0.125% (w/v), and 0.25% (w/v) sodium propionate were added to them, respectively; • d) sodium benzoate+potassium sorbate group: 6 test tubes each containing 5 ml broth, wherein 0.00625% (w/v), 0.0125% (w/v), and 0.025% (w/v) potassium sorbate were added to 3 tubes, respectively; 0.025% (w/v) sodium benzoate was added to each of the rest 3 tubes, and then 0.00625% (w/v), 0.0125% (w/v), and 0.025% (w/v) potassium sorbate were added to them, respectively; • e) sodium benzoate+Ethylparaben: 6 test tubes each containing 5 ml broth, wherein 0.0125% (w/v), 0.025% (w/v), and 0.05% (w/v) Ethylparaben were added to 3 tubes, respectively; 0.025% (w/v) sodium benzoate was added to each of the rest 3 tubes, and then 0.0125% (w/v), 0.025% (w/v), and 0.05% (w/v) Ethylparaben were added to them, respectively; • f) Positive control: a broth-containing test tube with Candida but without sodium benzoate, sodium dehydroacetate, sodium propionate, sorbic acid, or Ethylparaben. • g) Negative control: a broth-containing test tube without Candida, sodium benzoate, sodium dehydroacetate, sodium propionate, sorbic acid, or Ethylparaben; (3) Experimental Methods:
The Candidal suspensions were prepared under stringent aseptic manipulation techniques. The colonies of various Candidal strains were diluted with saline, respectively. The turbidity was adjusted with a turbiditor to 0.5M (about 10^8CFU/ml), and then 1 ml 0.5M bacterial solution was added to 9 ml broth and was 10 times diluted, so that each Candidal suspension comprised Candidal organisms at 10^7CFU/ml.
Under stringent aseptic manipulation techniques, 100 μl bacterial solution thus prepared was added to each of the aforesaid a˜f test tubes and the positive control tube, and no bacterial solution was added to the negative control tube g.
These tubes were incubated in a biochemical incubator at 37.5° C. for 72 hours. The turbidity of the test tubes were observed and recorded.

O=C([O-])c1ccccc1.[Na+] [0.1% sodium benzoate, sodium benzoate]
Candida (detection rate) ([1]; Day 1): 15/20
pH 3.8~4.1 (vaginal secretion) ([1]; Day 1): 12/20
pH 4.2~4.5 (vaginal secretion) ([1]; Day 1): 6/20
pH <3.8 (vaginal secretion) ([1]; Day 1): 2/20
symptom alleviated/eliminated ([1]; Day 1): 7/20
Candida (detection rate) ([1]; Day 2): 13/20
pH 3.8~4.1 (vaginal secretion) ([1]; Day 2): 10/20
pH 4.2~4.5 (vaginal secretion) ([1]; Day 2): 9/20
pH <3.8 (vaginal secretion) ([1]; Day 2): 1/20
symptom alleviated/eliminated ([1]; Day 2): 9/20
Candida (detection rate) ([1]; Day 3): 9/20
pH 3.8~4.1 (vaginal secretion) ([1]; Day 3): 9/20
pH 4.2~4.5 (vaginal secretion) ([1]; Day 3): 9/20
pH <3.8 (vaginal secretion) ([1]; Day 3): 2/20
symptom alleviated/eliminated ([1]; Day 3): 14/20
Candida (detection rate) ([1]; Day 4): 5/20
pH 3.8~4.1 (vaginal secretion) ([1]; Day 4): 10/20
pH 4.2~4.5 (vaginal secretion) ([1]; Day 4): 9/20
pH <3.8 (vaginal secretion) ([1]; Day 4): 1/20
symptom alleviated/eliminated ([1]; Day 4): 15/20
Candida (detection rate) ([1]; Day 5): 6/20
pH 3.8~4.1 (vaginal secretion) ([1]; Day 5): 9/20
pH 4.2~4.5 (vaginal secretion) ([1]; Day 5): 10/20
pH <3.8 (vaginal secretion) ([1]; Day 5): 1/20
symptom alleviated/eliminated ([1]; Day 5): 15/20
Candida (detection rate) ([1]; before administration): 20/20
pH 3.8~4.1 (vaginal secretion) ([1]; before administration): 10/20
pH 4.2~4.5 (vaginal secretion) ([1]; before administration): 4/20
pH <3.8 (vaginal secretion) ([1]; before administration): 6/20
symptom alleviated/eliminated ([1]; before administration): 0/20

CCC(=O)[O-].[Na+] [0.125% sodium propionate, sodium propionate]
Candida growth, Strain 1 ([2]; Strain 1, 37.5° C.): +
Candida growth, Strain 2 ([2]; Strain 2, 37.5° C.): +
Candida growth, Strain 3 ([2]; Strain 3, 37.5° C.): +
Candida growth, Strain 4 ([2]; Strain 4, 37.5° C.): +
Candida growth, Strain 5 ([2]; Strain 5, 37.5° C.): −
Candida growth, Strain 6 ([2]; Strain 6, 37.5° C.): +
Candida growth, Strain 7 ([2]; Strain 7, 37.5° C.): +
Candida growth, Strain 8 ([2]; Strain 8, 37.5° C.): +
Candida growth, Strain 9 ([2]; Strain 9, 37.5° C.): −
Candida growth, Strain 10 ([2]; Strain 10, 37.5° C.): +
Candida growth, Strain 11 ([2]; Strain 11, 37.5° C.): −
Candida (detection rate) ([1]; Day 1): 16/20
pH 3.8~4.1 (vaginal secretion) ([1]; Day 1): 12/20
pH 4.2~4.5 (vaginal secretion) ([1]; Day 1): 5/20
pH <3.8 (vaginal secretion) ([1]; Day 1): 3/20
symptom alleviated/eliminated ([1]; Day 1): 7/20
Candida (detection rate) ([1]; Day 2): 13/20
pH 3.8~4.1 (vaginal secretion) ([1]; Day 2): 11/20
pH 4.2~4.5 (vaginal secretion) ([1]; Day 2): 6/20
pH <3.8 (vaginal secretion) ([1]; Day 2): 3/20
symptom alleviated/eliminated ([1]; Day 2): 9/20
Candida (detection rate) ([1]; Day 3): 10/20
pH 3.8~4.1 (vaginal secretion) ([1]; Day 3): 9/20
pH 4.2~4.5 (vaginal secretion) ([1]; Day 3): 9/20
pH <3.8 (vaginal secretion) ([1]; Day 3): 2/20
symptom alleviated/eliminated ([1]; Day 3): 14/20
Candida (detection rate) ([1]; Day 4): 12/20
pH 3.8~4.1 (vaginal secretion) ([1]; Day 4): 10/20
pH 4.2~4.5 (vaginal secretion) ([1]; Day 4): 9/20
pH <3.8 (vaginal secretion) ([1]; Day 4): 1/20
symptom alleviated/eliminated ([1]; Day 4): 13/20
Candida (detection rate) ([1]; Day 5): 11/20
pH 3.8~4.1 (vaginal secretion) ([1]; Day 5): 10/20
pH 4.2~4.5 (vaginal secretion) ([1]; Day 5): 8/20
pH <3.8 (vaginal secretion) ([1]; Day 5): 2/20
symptom alleviated/eliminated ([1]; Day 5): 13/20
Candida (detection rate) ([1]; before administration): 20/20
pH 3.8~4.1 (vaginal secretion) ([1]; before administration): 9/20
pH 4.2~4.5 (vaginal secretion) ([1]; before administration): 5/20
pH <3.8 (vaginal secretion) ([1]; before administration): 6/20
symptom alleviated/eliminated ([1]; before administration): 0/20

C/C=C/C=C/C(=O)O [0.0125% sorbic acid, sorbic acid]
Candida (detection rate) ([1]; Day 1): 15/20
pH 3.8~4.1 (vaginal secretion) ([1]; Day 1): 13/20
pH 4.2~4.5 (vaginal secretion) ([1]; Day 1): 6/20
pH <3.8 (vaginal secretion) ([1]; Day 1): 1/20
symptom alleviated/eliminated ([1]; Day 1): 6/20
Candida (detection rate) ([1]; Day 2): 15/20
pH 3.8~4.1 (vaginal secretion) ([1]; Day 2): 11/20
pH 4.2~4.5 (vaginal secretion) ([1]; Day 2): 7/20
pH <3.8 (vaginal secretion) ([1]; Day 2): 2/20
symptom alleviated/eliminated ([1]; Day 2): 12/20
Candida (detection rate) ([1]; Day 3): 13/20
pH 3.8~4.1 (vaginal secretion) ([1]; Day 3): 10/20
pH 4.2~4.5 (vaginal secretion) ([1]; Day 3): 8/20
pH <3.8 (vaginal secretion) ([1]; Day 3): 2/20
symptom alleviated/eliminated ([1]; Day 3): 11/20
Candida (detection rate) ([1]; Day 4): 14/20
pH 3.8~4.1 (vaginal secretion) ([1]; Day 4): 11/20
pH 4.2~4.5 (vaginal secretion) ([1]; Day 4): 8/20
pH <3.8 (vaginal secretion) ([1]; Day 4): 1/20
symptom alleviated/eliminated ([1]; Day 4): 13/20
Candida (detection rate) ([1]; Day 5): 13/20
pH 3.8~4.1 (vaginal secretion) ([1]; Day 5): 11/20
pH 4.2~4.5 (vaginal secretion) ([1]; Day 5): 7/20
pH <3.8 (vaginal secretion) ([1]; Day 5): 2/20
symptom alleviated/eliminated ([1]; Day 5): 12/20
Candida (detection rate) ([1]; before administration): 20/20
pH 3.8~4.1 (vaginal secretion) ([1]; before administration): 9/20
pH 4.2~4.5 (vaginal secretion) ([1]; before administration): 6/20
pH <3.8 (vaginal secretion) ([1]; before administration): 5/20
symptom alleviated/eliminated ([1]; before administration): 0/20
